Results taken from the NIST ThermoML archive (doi:10.1016/j.jct.2011.06.012).

Assay: xn = mol fraction of the nth substance listed
Details: Liquid, Bellows volumetry

CC(C)C [2-methylpropane] + O=C=O
mass density [kg/m3]
Details	280 K	300 K	320 K	340 K	360 K
3000 kPa, x2 = 0.2482	611.63	–	–	–	–
3000 kPa, x2 = 0.4718	651.84	–	–	–	–
5000 kPa, x2 = 0.2482	615.96	–	552.16	–	–
5000 kPa, x2 = 0.4718	658.57	614.91	560.46	–	–
5000 kPa, x2 = 0.7506	741.3	–	–	–	–
10000 kPa, x2 = 0.2482	625.46	–	569.21	–	501.22
10000 kPa, x2 = 0.4718	672.04	634.66	592.64	543.45	481.3
10000 kPa, x2 = 0.7506	765.85	–	614.39	–	–
20000 kPa, x2 = 0.2482	641.52	–	593.88	–	542.86
20000 kPa, x2 = 0.4718	693.75	662.67	630.32	596.56	560.5
20000 kPa, x2 = 0.7506	800.45	–	697.56	–	574.95
30000 kPa, x2 = 0.2482	655.06	–	611.98	–	568.79
30000 kPa, x2 = 0.4718	710.92	683.38	655.66	627.77	598.86
30000 kPa, x2 = 0.7506	826.02	–	740.51	–	649.75
40000 kPa, x2 = 0.2482	665.95	–	627.15	–	588.52
40000 kPa, x2 = 0.4718	725.26	700.1	675.36	650.8	625.7
40000 kPa, x2 = 0.7506	846.38	–	771.26	–	694.72
50000 kPa, x2 = 0.2482	676.07	–	639.69	–	604.55
50000 kPa, x2 = 0.4718	737.44	714.21	691.66	669.07	646.76
50000 kPa, x2 = 0.7506	863.38	–	795.16	–	–
60000 kPa, x2 = 0.2482	684.83	–	650.61	–	–
60000 kPa, x2 = 0.4718	748.54	726.58	705.67	684.42	–
60000 kPa, x2 = 0.7506	878.75	–	815.43	–	–
70000 kPa, x2 = 0.2482	693.01	–	660.32	–	–
70000 kPa, x2 = 0.4718	758.63	737.54	717.84	697.86	–
70000 kPa, x2 = 0.7506	892.04	–	832.58	–	–
80000 kPa, x2 = 0.2482	700.46	–	669.23	–	–
80000 kPa, x2 = 0.4718	767.66	747.72	728.73	709.95	–
80000 kPa, x2 = 0.7506	904.12	–	847.76	–	–
90000 kPa, x2 = 0.2482	707.4	–	677.43	–	–
90000 kPa, x2 = 0.4718	775.73	756.68	738.7	720.77	–
90000 kPa, x2 = 0.7506	915.3	–	861.33	–	–
100000 kPa, x2 = 0.2482	713.94	–	685.01	–	–
100000 kPa, x2 = 0.4718	783.73	764.82	748.11	730.63	–
100000 kPa, x2 = 0.7506	925.43	–	873.81	–	–
120000 kPa, x2 = 0.2482	725.79	–	698.63	–	–
120000 kPa, x2 = 0.4718	797.65	780.34	764.51	748.22	–
120000 kPa, x2 = 0.7506	944.22	–	895.88	–	–
140000 kPa, x2 = 0.2482	736.43	–	710.75	–	–
140000 kPa, x2 = 0.4718	810.05	794.03	778.96	764.19	–
140000 kPa, x2 = 0.7506	960.61	–	915.09	–	–
160000 kPa, x2 = 0.2482	746.22	–	721.58	–	–
160000 kPa, x2 = 0.4718	821.36	805.98	791.76	777.55	–
160000 kPa, x2 = 0.7506	975.64	–	932.24	–	–
180000 kPa, x2 = 0.2482	755.07	–	731.49	–	–
180000 kPa, x2 = 0.4718	831.97	817	803.87	790.06	–
180000 kPa, x2 = 0.7506	989.13	–	947.81	–	–
200000 kPa, x2 = 0.2482	763.28	–	740.45	–	–
200000 kPa, x2 = 0.4718	841.63	827.43	814.43	801.25	–
200000 kPa, x2 = 0.7506	1001.91	–	962.05	–	–
